In patent US20190144406A1, “CRYSTALLINE FORMS OF DIMETHOXY DOCETAXEL AND METHODS FOR PREPARING THE SAME” (Aventis Pharma S.A., priority 2008, published 2019):
Read-outs that look alike come from different tables or passages of the source.

Columns and labels:
[1] = solid form
Method: The analyses were carried out on a Panalytical X'Pert Pro diffractometer with a reflection-mode Bragg-Brentano focusing geometry (θ-2θ) assembly. The product analysed is deposited as a thin layer on a silicon single crystal. A copper anticathode tube (45 kV/40 mA) supplies an incident radiation Cu Kα1 (λ=1.5406 Å). The beam is collimated using Sollers slits which improve the parallelism and variable slits which limit scattering. An X'Celerator detector completes the device. The diagram recording characteristics are the following: sweeping from 2 to 30 degrees 2θ, counting time from 100 to 500 seconds per step with a step of 0.017°.

[2] = behaviour of the crystalline form under relative humidity; type: physicochemical; details: relative humidity of greater than 5%

Row | SMILES | comparison of the PXRD analyses immediately after production and after maintaining at 40° C. for one month [1] | stability relative to the other forms described (listed as anhydrous form D) | stability relative to the other forms described | change of form in the presence of relative humidity [2]
1 | CO[C@H]1C(=O)[C@]2(C)[C@@H](OC)C[C@H]3OC[C@@]3(OC(C)=O)[C@H]2[C@H](OC(=O)c2ccccc2)[C@]2(O)C[C@H](OC(=O)[C@H](O)[C@@H](NC(=O)OC(C)(C)C)c3ccccc3)C(C)=C1C2(C)C [Form A, reference compound] | partial desolvation resulting in a mixture of the acetone solvate form A and of the anhydrous form B being obtained |  |  | 
2 | CO[C@H]1C(=O)[C@]2(C)[C@@H](OC)C[C@H]3OC[C@@]3(OC(C)=O)[C@H]2[C@H](OC(=O)c2ccccc2)[C@]2(O)C[C@H](OC(=O)[C@H](O)[C@@H](NC(=O)OC(C)(C)C)c3ccccc3)C(C)=C1C2(C)C [Form D] | no change detected | most stable anhydrous form |  | 
3 | CO[C@H]1C(=O)[C@]2(C)[C@@H](OC)C[C@H]3OC[C@@]3(OC(C)=O)[C@H]2[C@H](OC(=O)c2ccccc2)[C@]2(O)C[C@H](OC(=O)[C@H](O)[C@@H](NC(=O)OC(C)(C)C)c3ccccc3)C(C)=C1C2(C)C [anhydrous form C] |  |  | least stable | changes to a hydrated form
